Source: ChEMBL document CHEMBL5518181, “Studies of antibacterial activity (in vitro and in vivo) and mode of action for des-acyl tridecaptins (DATs)” (Eur J Med Chem, 2024)
Converted amounts (≈) assume the structure as drawn.

Columns and labels:
[1] = system: Acinetobacter baumannii; assay: Antibacterial activity against wild-type Acinetobacter baumannii ATCC 19606 assessed as inhibition of bacterial growth incubated for 20 hrs; type: functional; conditions: read-out: MIC100
[2] = system: Escherichia coli; assay: Antibacterial activity against wild-type Escherichia coli ATCC 25922 assessed as inhibition of bacterial growth incubated for 18 hrs; type: functional; conditions: read-out: MIC100
[3] = Hydrophobicity of compound assessed as %MeCN at peak elution by RP-HPLC analysis; type: physicochemical
[4] = system: Staphylococcus aureus; assay: Antibacterial activity against […] assessed as inhibition of bacterial growth incubated for 18 hrs; type: functional; conditions: ATCC 29213, read-out: MIC100
[5] = system: Escherichia coli; assay: Antibacterial activity against wild-type Escherichia coli ATCC 25922 assessed as inhibition of bacterial growth incubated for 18 hrs in presence of 50% heat inactivated human serum; type: functional; conditions: read-out: MIC100
[6] = Cytotoxicity against human HepG2 cells incubated for 40 hrs by celltiter-glo luminescent cell viability assay; type: toxicity, cell-based
[7] = system: Pseudomonas aeruginosa; assay: Antibacterial activity against wild-type Pseudomonas aeruginosa PAO1 assessed as inhibition of bacterial growth incubated for 24 hrs; type: functional; conditions: read-out: MIC100
[8] = Hemolytic activity in human red blood cells at 400 ug/ml incubated for 45 mins by spectrophotometric analysis relative to control; type: toxicity, cell-based, Erythrocyte; conditions: red blood cells (erythrocytes), at 400 µg/mL, read-out: Activity
[9] = system: Klebsiella pneumoniae; assay: Antibacterial activity against wild-type Klebsiella pneumoniae ATCC 13883 assessed as inhibition of bacterial growth incubated for 18 hrs in presence of 50% heat inactivated human serum; type: functional; conditions: read-out: MIC100
[10] = system: Klebsiella pneumoniae; assay: Antibacterial activity against wild-type Klebsiella pneumoniae ATCC 13883 assessed as inhibition of bacterial growth incubated for 18 hrs; type: functional; conditions: read-out: MIC100
[11] = Binding affinity to gram negative bacterial lipid II assessed as dissociation constant by ITC analysis; design: species or system Bacteria
[12] = system: Escherichia coli; assay: Antibacterial activity against Escherichia coli ATCC 25922 harboring hldE knock-out assessed as inhibition of bacterial growth incubated for 18 hrs; type: functional; conditions: read-out: MIC100
[13] = system: Escherichia coli; assay: Antibacterial activity against Escherichia coli ATCC 25922 harboring tolC knock-out assessed as inhibition of bacterial growth incubated for 18 hrs; type: functional; conditions: read-out: MIC100

Structure (SMILES) | MIC [1] [µg/mL] | MIC [2] [µg/mL] | MeCN percentage at peak elution [3] [%] | MIC [4] [µg/mL] | MIC [5] [µg/mL] | IC50 at 40 h [6] [µg/mL] | MIC [7] [µg/mL] | hemolysis at 0.75 h, 400 ug/ml [8] [%] | MIC [9] [µg/mL] | MIC [10] [µg/mL] | Kd [11] [nM] | MIC [12] [µg/mL] | MIC [13] [µg/mL]
CC[C@H](C)[C@@H](NC(=O)[C@@H](NC(=O)[C@H](CCC(=O)O)NC(=O)[C@H](Cc1ccccc1)NC(=O)[C@@H](CCN)NC(=O)[C@H](CCN)NC(=O)[C@H](CO)NC(=O)[C@@H](Cc1c[nH]c2ccccc12)NC(=O)[C@@H](CO)NC(=O)[C@H](CC(=O)O)NC(=O)[C@@H](CCN)NC(=O)[C@H](N)C(C)C)C(C)C)C(=O)N[C@@H](C)C(=O)O | > 64 | > 64 | 37.8 | > 64 | 64 | 13 (≈ 8.95 µM) | 64 (≈ 44.1 µM) | 0 | > 64 | > 64 |  |  | 
CC[C@H](C)[C@@H](NC(=O)[C@@H](NC(=O)[C@H](CCC(=O)O)NC(=O)[C@H](Cc1ccccc1)NC(=O)[C@@H](CCN)NC(=O)[C@H](CCN)NC(=O)[C@H](CCN)NC(=O)[C@@H](Cc1c[nH]c2ccccc12)NC(=O)[C@@H](CO)NC(=O)CNC(=O)[C@@H](CCN)NC(=O)[C@H](N)C(C)C)C(C)C)C(=O)N[C@@H](C)C(=O)O |  | > 64 |  |  |  | > 170 |  | 1.1 |  | > 64 | 800 |  | 
CC(C)[C@H](NC(=O)[C@H](CCC(=O)O)NC(=O)[C@H](Cc1ccccc1)NC(=O)[C@@H](CCN)NC(=O)[C@H](CCN)NC(=O)[C@H](CO)NC(=O)[C@@H](Cc1c[nH]c2ccccc12)NC(=O)[C@@H](CO)NC(=O)CNC(=O)[C@@H](CCN)NC(=O)[C@H](N)C(C)C)C(=O)N[C@@H](C(=O)N[C@@H](C)C(N)=O)C(C)(C)C |  | 16 (≈ 11.5 µM) |  |  |  | 127 (≈ 91.1 µM) |  | 1.6 |  | 2 (≈ 1.44 µM) | 330 |  | 
CC[C@H](C)[C@@H](NC(=O)[C@@H](NC(=O)[C@H](CCC(=O)O)NC(=O)[C@H](Cc1ccccc1)NC(=O)[C@@H](CCN)NC(=O)[C@H](CCN)NC(=O)[C@H](CO)NC(=O)[C@@H](Cc1c[nH]c2ccccc12)NC(=O)[C@@H](CO)NC(=O)CNC(=O)[C@@H](CCN)NC(=O)[C@H](NC(=O)[C@@H](C)N)C(C)C)C(C)C)C(=O)N[C@@H](C)C(=O)O | > 64 | 4 (≈ 2.73 µM) | 39.6 | > 64 | 4 | 98 (≈ 66.9 µM) | 32 (≈ 21.8 µM) | 2.3 | 4 | 2 (≈ 1.36 µM) |  | 2 (≈ 1.36 µM) | 4 (≈ 2.73 µM)
CC[C@H](C)[C@@H](NC(=O)[C@@H](NC(=O)[C@H](CCC(N)=O)NC(=O)[C@H](Cc1ccccc1)NC(=O)[C@@H](CCN)NC(=O)[C@H](CCN)NC(=O)[C@H](CO)NC(=O)[C@@H](Cc1c[nH]c2ccccc12)NC(=O)[C@@H](CO)NC(=O)CNC(=O)[C@@H](CCN)NC(=O)[C@H](N)C(C)C)C(C)C)C(=O)N[C@@H](C)C(=O)O |  | ≥ 32 |  |  |  | 41 (≈ 29.4 µM) |  | 2.1 |  | > 64 | 1400 |  | 
CC(C)[C@H](NC(=O)[C@H](CCC(=O)O)NC(=O)[C@H](Cc1ccccc1)NC(=O)[C@@H](CCN)NC(=O)[C@H](CCN)NC(=O)[C@H](CO)NC(=O)[C@@H](Cc1c[nH]c2ccccc12)NC(=O)[C@@H](CO)NC(=O)CNC(=O)[C@@H](CCN)NC(=O)[C@H](NC(=O)[C@H](C)N)C(C)C)C(=O)N[C@H](C)C(=O)N[C@@H](C)C(=O)O | > 64 | 64 (≈ 45 µM) | 37.7 | > 64 | 32 | 47 (≈ 33 µM) | 64 (≈ 45 µM) | 5 | 16 | 32 (≈ 22.5 µM) |  | 8 (≈ 5.62 µM) | 32 (≈ 22.5 µM)
CC[C@H](C)[C@@H](NC(=O)[C@@H](NC(=O)[C@H](C)NC(=O)[C@H](Cc1ccccc1)NC(=O)[C@@H](CCN)NC(=O)[C@H](CCN)NC(=O)[C@H](CO)NC(=O)[C@@H](Cc1c[nH]c2ccccc12)NC(=O)[C@@H](CO)NC(=O)CNC(=O)[C@@H](CCN)NC(=O)[C@H](NC(=O)[C@H](C)N)C(C)C)C(C)C)C(=O)N[C@@H](C)C(=O)O | > 64 | 8 (≈ 5.68 µM) | 40.1 | > 64 | 4 | 67 (≈ 47.6 µM) | 64 (≈ 45.5 µM) | 0.3 | 32 | 16 (≈ 11.4 µM) |  | 2 (≈ 1.42 µM) | 8 (≈ 5.68 µM)
CC[C@@H](C)[C@@H](NC(=O)[C@@H](NC(=O)[C@H](CCC(=O)O)NC(=O)[C@H](Cc1ccccc1)NC(=O)[C@@H](CCN)NC(=O)[C@H](CCN)NC(=O)[C@H](CO)NC(=O)[C@@H](Cc1c[nH]c2ccccc12)NC(=O)[C@@H](CO)NC(=O)CNC(=O)[C@@H](CCN)NC(=O)[C@H](N)C(C)C)C(C)C)C(=O)N[C@@H](C)C(=O)O | 64 (≈ 45.9 µM) | 64 (≈ 45.9 µM) | 39.5 | > 64 | 8 | 91 (≈ 65.3 µM) | > 64 | 5.5 | 8 | 64 (≈ 45.9 µM) |  | 8 (≈ 5.74 µM) | 4 (≈ 2.87 µM)
CC[C@H](C)[C@@H](NC(=O)[C@@H](NC(=O)[C@H](CCC(=O)O)NC(=O)[C@H](Cc1ccc(-c2ccccc2)cc1)NC(=O)[C@@H](CCN)NC(=O)[C@H](CCN)NC(=O)[C@H](CO)NC(=O)[C@@H](Cc1c[nH]c2ccccc12)NC(=O)[C@@H](CO)NC(=O)CNC(=O)[C@@H](CCN)NC(=O)[C@H](N)C(C)C)C(C)C)C(=O)N[C@@H](C)C(=O)O | > 64 | 8 (≈ 5.44 µM) |  | > 64 |  | 23 (≈ 15.6 µM) | 64 (≈ 43.5 µM) | 24.5 | 4 | 4 (≈ 2.72 µM) |  | 2 (≈ 1.36 µM) | < 0.125
CC[C@H](C)[C@@H](NC(=O)[C@@H](NC(=O)[C@H](CCC(=O)O)NC(=O)[C@H](Cc1ccccc1)NC(=O)[C@@H](CCN)NC(=O)[C@H](CCN)NC(=O)[C@H](CO)NC(=O)[C@@H](Cc1c[nH]c2ccccc12)NC(=O)[C@@H](CO)NC(=O)CNC(=O)[C@@H](CCN)NC(=O)[C@H](N)C(C)C)C(C)C)C(=O)O |  | > 64 |  |  |  | > 170 |  | 1 |  | > 64 | 230 |  | 
CC[C@H](C)[C@@H](NC(=O)[C@@H](NC(=O)[C@H](CCC(=O)O)NC(=O)[C@H](Cc1ccccc1)NC(=O)[C@@H](CN)NC(=O)[C@H](CCN)NC(=O)[C@H](CO)NC(=O)[C@@H](Cc1c[nH]c2ccccc12)NC(=O)[C@@H](CO)NC(=O)CNC(=O)[C@@H](CCN)NC(=O)[C@H](N)C(C)C)C(C)C)C(=O)N[C@@H](C)C(=O)O |  | > 64 |  |  |  | > 170 |  | 1.6 |  | > 64 | 1170 |  | 
CC[C@H](C)[C@@H](NC(=O)[C@@H](NC(=O)[C@H](CCC(=O)O)NC(=O)[C@H](Cc1ccccc1)NC(=O)[C@@H](CCN)NC(=O)[C@H](CCN)NC(=O)[C@H](CO)NC(=O)[C@@H](Cc1c[nH]c2ccccc12)NC(=O)[C@@H](CO)NC(=O)CNC(=O)[C@@H](CCN)NC(=O)[C@H](NC(=O)[C@H](C)N)C(C)C)C(C)C)C(=O)N[C@@H](C)C(N)=O |  | 8 (≈ 5.46 µM) |  |  |  | > 170 |  | 1.5 |  | 32 (≈ 21.8 µM) | 770 |  | 
CC[C@H](C)[C@@H](NC(=O)[C@@H](NC(=O)[C@H](CCC(=O)O)NC(=O)[C@H](Cc1ccccc1)NC(=O)[C@@H](C)NC(=O)[C@H](CCN)NC(=O)[C@H](CO)NC(=O)[C@@H](Cc1c[nH]c2ccccc12)NC(=O)[C@@H](CO)NC(=O)CNC(=O)[C@@H](CCN)NC(=O)[C@H](NC(=O)[C@H](C)N)C(C)C)C(C)C)C(=O)N[C@@H](C)C(=O)O | 64 (≈ 44.5 µM) | 16 (≈ 11.1 µM) | 45.9 | > 64 | 8 | 35 (≈ 24.4 µM) | > 64 | 4.5 | 16 | 16 (≈ 11.1 µM) |  | 8 (≈ 5.57 µM) | 8 (≈ 5.57 µM)
CC[C@H](C)[C@@H](NC(=O)[C@@H](NC(=O)[C@H](C)NC(=O)[C@H](Cc1ccccc1)NC(=O)[C@@H](CCN)NC(=O)[C@H](CCN)NC(=O)[C@H](CO)NC(=O)[C@@H](Cc1c[nH]c2ccccc12)NC(=O)[C@@H](CO)NC(=O)CNC(=O)[C@@H](CCN)NC(=O)[C@H](N)C(C)C)C(C)C)C(=O)N[C@@H](C)C(=O)O |  | > 64 |  |  |  | > 170 |  | 0 |  | > 64 | 1220 |  | 
CC[C@H](C)[C@@H](NC(=O)[C@H](CC1CCCCC1)NC(=O)[C@H](CCC(=O)O)NC(=O)[C@H](Cc1ccccc1)NC(=O)[C@@H](CCN)NC(=O)[C@H](CCN)NC(=O)[C@H](CO)NC(=O)[C@@H](Cc1c[nH]c2ccccc12)NC(=O)[C@@H](CO)NC(=O)CNC(=O)[C@@H](CCN)NC(=O)[C@H](N)C(C)C)C(=O)N[C@@H](C)C(=O)O | 64 (≈ 44.2 µM) | 8 (≈ 5.52 µM) | 43.9 | > 64 | 16 | 46 (≈ 31.8 µM) | > 64 | 59.1 | 4 | 8 (≈ 5.52 µM) |  | 2 (≈ 1.38 µM) | < 0.125
